Laboratory results taken from PMC11018872, “Dynamic inter-domain transformations mediate the allosteric regulation of human 5, 10-methylenetetrahydrofolate reductase” (Nature Communications, 2024).

Experiments:
Type in all cases: binding
[1] = molecular target: T1, 5,10-methylenetetrahydrofolate reductase (MTHFR) (Homo sapiens, UniProt P42898); assay: cryo-EM structure at […] Å (SAM-bound state)
T1 construct: MTHFRFL aa 1–656

[2] = molecular target: T1, 5,10-methylenetetrahydrofolate reductase (MTHFR); assay: ITC; cryo-EM structures at […] and […] Å
[3] = molecular target: T1, 5,10-methylenetetrahydrofolate reductase (MTHFR); assay: ITC; cryo-EM structure at […] Å; DSF; HPLC activity assay

T1 sequence (P42898 whole entry, the tested form may be a part): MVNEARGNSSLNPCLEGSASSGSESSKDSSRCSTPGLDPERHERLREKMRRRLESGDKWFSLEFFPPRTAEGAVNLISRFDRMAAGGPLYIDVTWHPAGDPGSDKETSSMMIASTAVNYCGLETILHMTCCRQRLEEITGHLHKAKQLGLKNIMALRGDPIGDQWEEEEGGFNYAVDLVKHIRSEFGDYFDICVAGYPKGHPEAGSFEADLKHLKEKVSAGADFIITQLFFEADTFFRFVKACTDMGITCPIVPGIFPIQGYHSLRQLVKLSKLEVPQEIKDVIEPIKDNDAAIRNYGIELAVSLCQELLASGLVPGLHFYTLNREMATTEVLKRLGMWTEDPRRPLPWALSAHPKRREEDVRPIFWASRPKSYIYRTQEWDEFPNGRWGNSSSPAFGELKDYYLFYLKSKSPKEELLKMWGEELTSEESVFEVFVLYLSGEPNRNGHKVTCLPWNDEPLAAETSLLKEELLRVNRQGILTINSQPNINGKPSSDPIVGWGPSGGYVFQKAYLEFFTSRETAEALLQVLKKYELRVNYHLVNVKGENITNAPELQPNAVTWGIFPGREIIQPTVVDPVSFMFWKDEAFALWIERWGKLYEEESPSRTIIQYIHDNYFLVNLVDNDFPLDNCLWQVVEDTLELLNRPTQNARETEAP

Cc1cc2nc3c(=O)[nH]c(=O)nc-3n(C[C@H](O)[C@H](O)[C@H](O)COP(=O)(O)OP(=O)(O)OC[C@H]3O[C@@H](n4cnc5c(N)ncnc54)[C@H](O)[C@@H]3O)c2cc1C [FAD, flavin adenine dinucleotide]
cryo-EM structure at 2.9 Å (SAM-bound state) [1]: FAD was found in both CD active sites of the homodimer (Fig. 2c) with clear electron densities

Nc1ncnc2c1ncn2[C@@H]1O[C@H](CSCC[C@H](N)C(=O)O)[C@@H](O)[C@H]1O [SAH, S-adenosyl-L-homocysteine]
Kd [2]: 380 to 390 nM

C[S+](CC[C@H](N)C(=O)[O-])C[C@H]1O[C@@H](n2cnc3c(N)ncnc32)[C@H](O)[C@@H]1O (stereo partly drawn) [SAM, S-adenosyl-L-methionine]
Kd [3]: 860 to 990 nM
